According to ChEMBL document CHEMBL1201862, “PubChem BioAssay data set” (2004):
Activity calls are given as the source filed them.

Columns and labels:
[1] = target: 72 kDa type IV collagenase (Homo sapiens, UniProt P08253); experiment: Dose Response validation of uHTS RPN11 inhibitor hits using a MMP-2 Fluorescence assay.; format: functional
[2] = target: Prothrombin (Bos taurus, UniProt P00735); experiment: thrombin inhibition, dose response, biochemical, fluorescence polarization, uHTS hits (AID 602369); format: functional
[3] = target: 26S proteasome non-ATPase regulatory subunit 14 (Homo sapiens, UniProt O00487); experiment: inhibition of proteasome subunit RPN11 – biochemical, fluorescence polarization, uHTS hits, confirmation (AID 602368); format: functional
[4] = target: T1, Short transient receptor potential channel 4 (Mus musculus, UniProt Q9QUQ5); experiment: mouse TRPC4 channel inhibitors, dose response, cell-based, HEK293 TRPC4/mu-opioid, Fluo-4 calcium (AID 434942); format: functional;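 also: potency of inhibitors blocking the TRPC4 calcium response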
T1 sequence (Q9QUQ5 whole entry): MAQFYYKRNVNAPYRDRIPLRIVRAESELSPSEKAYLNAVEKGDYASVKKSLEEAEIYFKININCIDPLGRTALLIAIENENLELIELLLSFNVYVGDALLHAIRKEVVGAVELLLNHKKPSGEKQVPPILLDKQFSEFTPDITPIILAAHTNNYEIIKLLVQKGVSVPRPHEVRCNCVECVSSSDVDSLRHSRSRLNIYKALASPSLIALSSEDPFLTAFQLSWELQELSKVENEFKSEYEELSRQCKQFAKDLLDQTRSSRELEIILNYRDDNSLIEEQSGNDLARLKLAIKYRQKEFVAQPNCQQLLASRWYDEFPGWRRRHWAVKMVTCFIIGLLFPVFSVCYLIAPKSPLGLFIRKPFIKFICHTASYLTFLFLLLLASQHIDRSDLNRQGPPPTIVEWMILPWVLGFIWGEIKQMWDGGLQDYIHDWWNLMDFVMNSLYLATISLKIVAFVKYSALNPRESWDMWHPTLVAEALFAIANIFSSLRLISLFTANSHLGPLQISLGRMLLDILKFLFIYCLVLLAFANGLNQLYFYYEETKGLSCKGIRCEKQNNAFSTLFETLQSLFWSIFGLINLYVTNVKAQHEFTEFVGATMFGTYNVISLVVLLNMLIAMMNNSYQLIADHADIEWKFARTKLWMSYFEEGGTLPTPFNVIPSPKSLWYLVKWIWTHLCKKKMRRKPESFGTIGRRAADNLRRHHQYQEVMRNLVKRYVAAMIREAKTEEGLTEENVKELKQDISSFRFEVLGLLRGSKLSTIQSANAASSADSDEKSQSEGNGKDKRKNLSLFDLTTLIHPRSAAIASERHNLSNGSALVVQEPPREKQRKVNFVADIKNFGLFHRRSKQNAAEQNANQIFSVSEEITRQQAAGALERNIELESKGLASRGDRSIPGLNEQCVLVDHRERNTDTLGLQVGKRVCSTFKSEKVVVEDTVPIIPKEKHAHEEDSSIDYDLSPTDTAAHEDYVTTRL

[5] = target: T2, High affinity choline transporter 1 (Homo sapiens, UniProt Q9GZV3); experiment: CHT activators, dose response, cell-based, 10-point CRC, membrane potential dye (AID 602376); format: functional
T2 sequence (Q9GZV3 whole entry): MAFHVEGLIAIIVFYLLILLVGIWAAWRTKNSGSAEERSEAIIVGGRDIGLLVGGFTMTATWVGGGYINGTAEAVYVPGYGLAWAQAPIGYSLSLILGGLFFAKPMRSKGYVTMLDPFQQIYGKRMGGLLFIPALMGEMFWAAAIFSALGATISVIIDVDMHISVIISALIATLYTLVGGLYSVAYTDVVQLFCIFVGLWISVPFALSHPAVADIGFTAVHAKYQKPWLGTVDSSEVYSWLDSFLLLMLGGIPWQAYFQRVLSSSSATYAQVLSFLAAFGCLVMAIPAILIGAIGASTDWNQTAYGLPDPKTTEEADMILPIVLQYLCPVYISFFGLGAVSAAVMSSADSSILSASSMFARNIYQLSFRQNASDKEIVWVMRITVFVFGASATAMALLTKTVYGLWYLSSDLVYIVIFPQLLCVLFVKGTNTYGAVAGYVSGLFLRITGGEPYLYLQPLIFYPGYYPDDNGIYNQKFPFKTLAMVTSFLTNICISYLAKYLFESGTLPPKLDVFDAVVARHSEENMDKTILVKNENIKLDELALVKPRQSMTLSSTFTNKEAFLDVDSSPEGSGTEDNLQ

[6] = tested on: CHO-K1; experiment: (§1) Counterscreen for antagonists of the orexin 1 receptor (OX1R; HCRTR1): Homogeneous time resolved fluorescence (HTRF)-based cell-based dose response assay to identify antagonists of the parental CHO-K1 cell line. [Related pubchem assays (depositor defined):AID434989, AID435008, AID463079, AID485270, AID492963, AID492964, AID492965, AID493232, AID504699, AID504701]; format: functional; details: Cricetulus griseus
[7] = target: T3, Orexin receptor type 2 (Homo sapiens, UniProt O43614); experiment: Counterscreen assay for antagonists of the orexin 1 receptor (OX1R; HCRTR1): Homogeneous Time Resolved Fluorescence (HTRF)-based cell-based dose response assay for antagonists of the orexin 2 receptor (OX2R; HCRTR2), run by assay provider.; format: functional
T3 sequence (O43614 whole entry): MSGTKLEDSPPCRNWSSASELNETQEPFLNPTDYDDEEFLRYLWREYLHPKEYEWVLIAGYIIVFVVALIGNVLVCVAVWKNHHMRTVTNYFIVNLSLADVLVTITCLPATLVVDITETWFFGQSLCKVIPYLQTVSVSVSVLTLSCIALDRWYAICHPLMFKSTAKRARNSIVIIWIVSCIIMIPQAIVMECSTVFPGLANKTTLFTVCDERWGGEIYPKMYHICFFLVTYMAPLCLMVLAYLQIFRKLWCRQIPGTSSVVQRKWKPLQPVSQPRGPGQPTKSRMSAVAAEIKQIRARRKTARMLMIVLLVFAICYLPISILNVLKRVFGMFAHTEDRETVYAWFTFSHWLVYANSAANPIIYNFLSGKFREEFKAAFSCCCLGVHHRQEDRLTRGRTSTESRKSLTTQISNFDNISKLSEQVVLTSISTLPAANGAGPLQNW

[8] = target: T4, Orexin/Hypocretin receptor type 1 (Homo sapiens, UniProt O43613); experiment: (§2) Fluorescence-based cell-based high throughput dose response assay for antagonists of the orexin 1 receptor (OX1R; HCRTR1). [Related pubchem assays (depositor defined):AID434989, AID435008, AID463079, AID485270, AID492963, AID492964, AID492965, AID493232, AID504717, AID504718]; format: functional
T4 sequence (O43613 whole entry): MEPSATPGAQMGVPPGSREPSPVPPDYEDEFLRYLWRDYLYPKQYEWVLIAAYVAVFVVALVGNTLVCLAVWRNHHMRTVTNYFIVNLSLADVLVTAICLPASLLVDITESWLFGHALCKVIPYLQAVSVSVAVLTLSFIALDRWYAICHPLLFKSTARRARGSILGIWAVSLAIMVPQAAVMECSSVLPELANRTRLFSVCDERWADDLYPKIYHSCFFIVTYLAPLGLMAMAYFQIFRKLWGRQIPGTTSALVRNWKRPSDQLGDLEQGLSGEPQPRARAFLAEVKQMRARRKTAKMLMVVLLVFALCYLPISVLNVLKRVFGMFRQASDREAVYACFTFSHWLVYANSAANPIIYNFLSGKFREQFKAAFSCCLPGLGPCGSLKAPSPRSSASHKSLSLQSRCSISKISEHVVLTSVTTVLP

[9] = as §1, with “Fluorescence-based” for “Homogeneous time resolved fluorescence (HTRF)-based”, “cell-based high throughput” for “cell-based”, “CHO” for “CHO-K1”; format: functional
[10] = target: T3, Orexin receptor type 2; experiment: Counterscreen assay for antagonists of the orexin 1 receptor (OX1R; HCRTR1): Fluorescence-based cell-based dose response assay for antagonists of the orexin 2 receptor (OX2R; HCRTR2), run by assay provider.; format: functional
[11] = target: T4, Orexin/Hypocretin receptor type 1; experiment: as §2, with “Homogeneous Time Resolved Fluorescence (HTRF)-based” for “Fluorescence-based”; format: functional
[12] = cytotoxicity in MIN6 insulinoma cells, dose response, cytotoxicity control, cell-based, mouse insulinoma (AID 2122); format: functional;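 also: confirmatory high-throughput counterscreen run to flag cytotoxic compounds; mouse MIN-6 beta cells carrying an insulin promoter eGFP reporter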
[13] = Fluorescence-based cell-based high throughput dose response assay for inhibitors of the interaction of nucleotide-binding oligomerization domain containing 2 (NOD2) and the receptor-interacting serine-threonine kinase 2 (RIPK2).; format: functional; details: Homo sapiens
[14] = tested on: BJ; experiment: cytotoxicity toward BJ-TERT-LT-ST fibroblasts, dose response, cell-based, RAS-independent, luminescence (AID 1935); format: functional; details: Homo sapiens;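 also: BJ fibroblasts immortalized with TERT plus LT and ST oncogenes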
[15] = tested on: BJ; experiment: cells; format: functional, cell-based; details: Homo sapiens
[16] = Vero E6 cell cytotoxicity, dose response, cytotoxicity control for non-replicating M. tuberculosis project, secondary assay (AID 492998); format: functional, VeroE6; details: Vero C1008
[17] = cells; format: functional
[18] = cytotoxicity toward DRD oncogenic fibroblasts, dose response, cell-based, non-viral oncogenic, luminescence (AID 1934); format: functional; details: Homo sapiens
[19] = HepG2 cell cytotoxicity, dose response, cytotoxicity control for non-replicating M. tuberculosis project (AID 489018); format: functional; details: Mycobacterium tuberculosis
[20] = tested on: BJ; experiment: cytotoxicity toward Ras-transformed BJeLR fibroblasts, dose response, cell-based, alamar blue fluorescence, cherrypicked samples (AID 2631); format: functional; details: Homo sapiens;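 also: confirmatory dose-response assay in RAS-dependent BJ fibroblasts engineered with TERT, LT and ST, with cytotoxicity read by fluorescence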
[21] = target: T5, Ubiquitin-conjugating enzyme E2 N (Homo sapiens, UniProt P61088); format: functional;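 also: Dose-response confirmation in a TR-FRET assay detecting UBC13-driven polyubiquitin chain formation, inhibition measured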
T5 sequence (P61088 whole entry): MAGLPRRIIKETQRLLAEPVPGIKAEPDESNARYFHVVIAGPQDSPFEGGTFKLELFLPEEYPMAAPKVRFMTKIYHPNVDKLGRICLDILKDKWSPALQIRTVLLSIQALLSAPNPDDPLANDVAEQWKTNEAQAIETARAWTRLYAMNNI

[22] = target: Beta Lactamase (Pseudomonas aeruginosa, UniProt Q932Y6); experiment: beta-lactamase reporter inhibitor potency, dose response, artefact control for NOD2-RIPK2 interaction inhibitor project, BLA reporter cells, FRET fluorescence (AID 651552); format: functional, cell-based
[23] = THP-1 cell cytotoxicity, dose response, cytotoxicity control for non-replicating M. tuberculosis project (AID 489025); format: functional
[24] = tested on: BJ; experiment: cytotoxicity toward BJ-TERT fibroblasts, dose response, cell-based, RAS-independent, luminescence (AID 1933); format: functional; details: Homo sapiens
[25] = insulin promoter down-regulators in MIN6 cells, imaging, high-content screening, mouse beta cells (AID 1628); format: functional

Chain of Beta Lactamase (Q932Y6 whole entry): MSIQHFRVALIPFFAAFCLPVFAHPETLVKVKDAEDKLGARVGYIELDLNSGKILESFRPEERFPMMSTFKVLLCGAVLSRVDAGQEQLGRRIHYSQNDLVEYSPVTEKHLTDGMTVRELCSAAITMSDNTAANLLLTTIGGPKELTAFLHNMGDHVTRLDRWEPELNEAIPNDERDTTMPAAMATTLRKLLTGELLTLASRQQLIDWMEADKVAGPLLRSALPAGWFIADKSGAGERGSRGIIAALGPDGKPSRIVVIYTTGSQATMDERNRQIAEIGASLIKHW
Chain of 26S proteasome non-ATPase regulatory subunit 14 (O00487 whole entry): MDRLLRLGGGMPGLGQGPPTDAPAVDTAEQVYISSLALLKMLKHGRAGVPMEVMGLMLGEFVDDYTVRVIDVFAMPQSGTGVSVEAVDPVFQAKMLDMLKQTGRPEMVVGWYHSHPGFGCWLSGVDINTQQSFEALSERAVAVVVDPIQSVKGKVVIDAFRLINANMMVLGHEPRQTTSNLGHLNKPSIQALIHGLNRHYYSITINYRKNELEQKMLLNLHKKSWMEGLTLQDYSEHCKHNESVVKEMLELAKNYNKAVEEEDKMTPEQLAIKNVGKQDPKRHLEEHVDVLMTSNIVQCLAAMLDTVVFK
Chain of 72 kDa type IV collagenase (P08253 whole entry): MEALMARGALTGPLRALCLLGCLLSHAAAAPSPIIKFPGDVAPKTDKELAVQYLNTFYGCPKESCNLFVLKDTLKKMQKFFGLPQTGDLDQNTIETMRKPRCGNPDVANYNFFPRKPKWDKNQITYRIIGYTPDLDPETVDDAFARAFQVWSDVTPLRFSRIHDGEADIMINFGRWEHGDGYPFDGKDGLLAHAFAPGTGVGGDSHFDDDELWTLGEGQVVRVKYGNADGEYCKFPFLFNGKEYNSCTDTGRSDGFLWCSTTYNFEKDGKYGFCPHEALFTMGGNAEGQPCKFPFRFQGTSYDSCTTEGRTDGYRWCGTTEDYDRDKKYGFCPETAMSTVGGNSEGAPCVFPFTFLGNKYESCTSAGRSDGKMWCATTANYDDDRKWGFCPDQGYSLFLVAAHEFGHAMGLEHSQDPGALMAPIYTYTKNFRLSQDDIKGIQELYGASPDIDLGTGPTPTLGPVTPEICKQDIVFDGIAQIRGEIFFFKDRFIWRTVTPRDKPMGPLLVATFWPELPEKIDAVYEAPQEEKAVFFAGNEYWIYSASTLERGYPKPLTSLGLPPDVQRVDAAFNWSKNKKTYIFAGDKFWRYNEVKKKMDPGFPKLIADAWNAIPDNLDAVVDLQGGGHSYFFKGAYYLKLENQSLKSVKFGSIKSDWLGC

CC[n+]1c(/C=C/Nc2ccccc2)oc2ccc(OC)cc21
IC50 [1]: > 100 µM (inactive)
IC50 [2]: 55.6 µM (active)
IC50 [3]: 23.2 µM (active)
EC50 [4]: 3.35 µM (active)

COc1ccc(C(CCNCc2ccc(OC)c(OC)c2)c2ccc(F)cc2)cc1 (configuration not stated)
EC50 [5]: 20.9 µM (active)

COc1ccc2c(Cl)c(C(=O)N/N=C/c3c(C)[nH]c4ccccc34)sc2c1
IC50 [6]: > 66.2 µM (inactive)
IC50 [7]: > 50 µM (inactive)
IC50 [8]: 6.57 µM (active)
IC50 [9]: > 49.8 µM (inactive)
IC50 [10]: 23.2 µM (inactive)
IC50 [11]: 2.04 µM (active)

CCCCCOc1ccc(Br)cc1/C(C)=N/NC1=NCCN1
IC50 [12]: 1.26 µM (active)
IC50 [13]: 39.9 µM (inactive)
EC50 [14]: 4.48 µM (inconclusive)
EC50 [15]: 8.5 µM (active)
CC50 [16]: 5.08 µM (active)
IC50 [17]: 21.4 µM (active)
EC50 [18]: 5.8 µM (active)
CC50 [19]: 11.3 µM (active)
EC50 [20]: 0.647 µM (active)
IC50 [21]: > 20 µM (inactive)
EC50 [5]: 14.8 µM (active)
IC50 [22]: 49.8 µM (inactive)
CC50 [23]: 2.09 µM (active)
EC50 [24]: 2.99 µM (active)
IC50 [25]: 1.6 µM (active)

COc1ccc(-c2nc3ccccc3s2)cc1O
IC50 [6]: > 66.2 µM (inactive)
IC50 [7]: 9.41 µM (active)
IC50 [8]: 9.38 µM (active)
IC50 [9]: > 49.8 µM (inactive)
IC50 [10]: 56 µM (inactive)
IC50 [11]: 3.25 µM (active)
